Assay results reported in patent US6372691B1, “Method for controlling weeds” (Sumitomo Chemical Company, Limited, priority 1999, dated 2002).

Experiments:
Assay type in all cases: in vivo
[1] = system: common cocklebur (Xanthium strumarium); test: Test Example 2: foliar application in greenhouse pots, herbicidal activity; parameters: key: “0” means that there was no or little difference in the degree of germination or growth between the treated and the untreated tested plants at the time of examination; “10” means that the test plants died completely or their germination or growth was completely inhibited; conditions: index 0 to 10, 10 days after application
Procedure: (§1) The evaluation of phytotoxicity is as follows:
(§2) Plastic pots having a diameter of 11 cm and a depth of 8 cm were filled with upland soil, and seeded with common cocklebur (Xanthium strumarium) . The test plants were grown in a greenhouse for 5 days. After that, corn was further seeded in each of the above pots and the test plants were grown in the greenhouse for further 16 days. Emulsifiable concentrate comprising compound A or Comparative compound obtained by well mixing 5 parts of compound A or Comparative compound, 6 parts of Sorpol 3005X (produced by Toho Chemical Industry, Co., Ltd.) and 89 parts of xylene was diluted with prescribed amount of water, and the dilution was applied over the test plants uniformly using a small sprayer. The leaf stage of the corns grown for 16 days were 2-leaf stage. After the application, the test plants were grown in the greenhouse for 10 days and then, herbicidal activity and phytotoxicity to corn were examined.

corn [2] = test: Test Example 2: phytotoxicity to corn; parameters: key: No harm: Phytotoxicity is hardly seen.; Slight phytotoxicity which does not affect the growth of corn is seen.; Light phytotoxicity and light growth inhibition of corn are seen.; Middle phytotoxicity and growth inhibition of corn are seen.; Serious phytotoxicity and serious growth inhibition of corn are seen; conditions: corn at 2-leaf stage, 10 days after application
Procedure: as §1
(§3) No harm: Phytotoxicity is hardly seen.
(§4) Light: Light phytotoxicity and light growth inhibition of corn are seen.
(§5) Middle: Middle phytotoxicity and growth inhibition of corn are seen.
(§6) Serious: Serious phytotoxicity and serious growth inhibition of corn are seen.
as §2

[3] = system: common lambsquarters (Chenopodium album); test: Test Example 1: foliar application in greenhouse pots, herbicidal activity; parameters: key: “0” means that there was no or little difference in the degree of germination or growth between the treated and the untreated tested plants at the time of examination; “10” means that the test plants died completely or their germination or growth was completely inhibited; conditions: index 0 to 10, 10 days after application
Procedure: as §1
(§7) Plastic pots having a diameter of 11 cm and a depth of 8 cm were filled with upland soil, and seeded with common lambsquarters (Chenopodium album), ivyleaf morningglory (Ipomoea hederacea), velvetleaf (Abutilon theophrasti), and corn. The test plants were grown in a greenhouse for 7 days. After that, other corn was further seeded in each of the above pots and the test plants were grown in the greenhouse for further 19 days. Emulsifiable concentrate comprising compound A obtained by well mixing 5 parts of compound A, 6 parts of Sorpol 3005X (produced by Toho Chemical Industry, Co., Ltd.) and 89 parts of xylene was diluted with prescribed amount of water, and the dilution was applied over the test plants uniformly using a small sprayer. The leaf stage of the corns grown for 26 days and 19 days were 2-leaf stage and 1-leaf stage, respectively. After the application, the test plants were grown in the greenhouse for 10 days and then, herbicidal activity and phytotoxicity to corn were examined.

[4] = system: ivyleaf morningglory (Ipomoea hederacea); test: as above; parameters: key: “0” means that there was no or little difference in the degree of germination or growth between the treated and the untreated tested plants at the time of examination; “10” means that the test plants died completely or their germination or growth was completely inhibited; conditions: index 0 to 10, 10 days after application
Procedure: as §1, §7

[5] = system: velvetleaf (Abutilon theophrasti); test: as above; parameters: key: “0” means that there was no or little difference in the degree of germination or growth between the treated and the untreated tested plants at the time of examination; “10” means that the test plants died completely or their germination or growth was completely inhibited; conditions: index 0 to 10, 10 days after application
Procedure: as §1, §7

corn [6] = test: Test Example 1: phytotoxicity to corn; parameters: key: No harm: Phytotoxicity is hardly seen.; Slight phytotoxicity which does not affect the growth of corn is seen.; Light phytotoxicity and light growth inhibition of corn are seen.; Middle phytotoxicity and growth inhibition of corn are seen.; Serious phytotoxicity and serious growth inhibition of corn are seen; conditions: 10 days after application; for Phytotoxicity C1: corn at 1-leaf stage; for Phytotoxicity C2: corn at 2-leaf stage
From the text: as §1, §3, §4, §5, §6, §7

COC(=O)CSc1cc(-n2c(=O)cc(C(F)(F)F)n(C)c2=O)c(F)cc1Cl [Comparative compound, reference compound]
Herbicidal activity Cocklebur ([1]; dosage 2.5 g/ha): 8
Herbicidal activity Cocklebur ([1]; dosage 5 g/ha): 10
Herbicidal activity Cocklebur ([1]; dosage 10 g/ha): 10
Phytotoxicity corn (corn [2]; dosage 2.5 g/ha): No harm
Phytotoxicity corn (corn [2]; dosage 5 g/ha): Slight
Phytotoxicity corn (corn [2]; dosage 10 g/ha): light

COC(=O)C(C)Oc1cc(-n2c(=O)cc(C(F)(F)F)n(C)c2=O)c(F)cc1Cl (stereo not drawn) [Compound A, methyl 2-[2-chloro-4-fluoro-5-{3-methyl-2,6-dioxo-4-(trifluoromethyl)-1,2,3,6-tetrahydropyrimidin-1-yl}phenoxy]propionate]
Herbicidal activity La ([3]; dosage 5 g/ha): 9
Herbicidal activity La ([3]; dosage 10 g/ha): 10
Herbicidal activity La ([3]; dosage 20 g/ha): 10
Herbicidal activity Mo ([4]; dosage 5 g/ha): 10
Herbicidal activity Mo ([4]; dosage 10 g/ha): 10
Herbicidal activity Mo ([4]; dosage 20 g/ha): 10
Herbicidal activity Ve ([5]; dosage 5 g/ha): 10
Herbicidal activity Ve ([5]; dosage 10 g/ha): 10
Herbicidal activity Ve ([5]; dosage 20 g/ha): 10
Phytotoxicity C1 (corn [6]; dosage 5 g/ha): No harm
Phytotoxicity C1 (corn [6]; dosage 10 g/ha): No harm
Phytotoxicity C1 (corn [6]; dosage 20 g/ha): Slight
Phytotoxicity C2 (corn [6]; dosage 5 g/ha): No harm
Phytotoxicity C2 (corn [6]; dosage 10 g/ha): No harm
Phytotoxicity C2 (corn [6]; dosage 20 g/ha): No harm
Herbicidal activity Cocklebur ([1]; dosage 2.5 g/ha): 10
Herbicidal activity Cocklebur ([1]; dosage 5 g/ha): 10
Herbicidal activity Cocklebur ([1]; dosage 10 g/ha): 10
Phytotoxicity corn (corn [2]; dosage 2.5 g/ha): No harm
Phytotoxicity corn (corn [2]; dosage 5 g/ha): No harm
Phytotoxicity corn (corn [2]; dosage 10 g/ha): No harm
